# In patent US20090035306A1 (KALYPSYS, INC., priority 2006, published 2009):
# How the values were obtained:
# [1] = molecular target: T1, human TGR5 (Homo sapiens, UniProt Q8TDU6); experiment: cAMP production assay in HEK293 cells stably expressing TGR5 (LANCE TR-FRET); type: cell-based; conditions: 30 minutes stimulation, read-out: cAMP Production in 293-TGR5 Cells EC50
# T1 construct: expressed in transfected cells
# T1 sequence (Q8TDU6 1-330): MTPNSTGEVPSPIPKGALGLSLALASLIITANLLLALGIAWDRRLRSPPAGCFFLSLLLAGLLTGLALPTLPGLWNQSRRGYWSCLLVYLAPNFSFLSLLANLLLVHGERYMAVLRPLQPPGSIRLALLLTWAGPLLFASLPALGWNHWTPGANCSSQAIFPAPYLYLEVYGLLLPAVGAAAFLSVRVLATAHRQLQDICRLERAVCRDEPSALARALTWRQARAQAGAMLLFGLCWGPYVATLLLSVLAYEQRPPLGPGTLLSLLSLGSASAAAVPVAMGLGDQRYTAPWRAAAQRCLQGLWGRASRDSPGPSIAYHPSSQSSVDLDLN
# Summary of the method: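 HEK293 cells stably transfected with human TGR5, incubated overnight in DMEM with 0.1% FBS, then given IBMX (1 mM final) and stimulated with compounds for 30 minutes. cAMP measured by LANCE TR-FRET after 1-7 h detection at room temperature. EC50 values reported as ≦10 μM (+) or >10 μM (−).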
# [2] = system: Mice; experiment: Glucose tolerance test (GTT), glucose disposal; type: in vivo, mouse; conditions: 30 mg/kg
# Experimental: (§1) Vehicle is CMC-Tween: 0.5% CMC+0.25% Tween 20 at an appropriate ml/kg. Dextrose dose per mouse=2 g dextrose/kg made from 0.5 g/ml stock dextrose solution. Compound 1 dose per mouse=30 mg/kg in CMC/Tween vehicle made from 4 mg/mL stock solution by adding 50 μL DMSO to 20 mg Compound 1, stirring to make a paste, adding 1 ml CMC/Tween with stirring, sonicating for 8 minutes on energy 05, and adjusting to 5 ml with CMC/Tween.
# Glucose Tolerance Test (GTT)/Insulin Test
# (§2) Mice (5 per group) were fasted at 6 am for an experiment at noon. Blood glucose was measured from tail nick blood using an Accucheck—Compact Monitoring Kit (Roche Diagnostics, Indianapolis Ind.). Baseline (time=−15 min) blood glucose concentration was determined for all mice and tail nick blood samples were collected. 2 g/kg dextrose (Hospira, Lake Forest, Ill.) was administered orally at time 0. Blood samples were collected from the following mice via tail nick blood draw (˜100 μL) into EDTA microtainer tubes at the following time points: −15, 0, 3, 6, 9, 12, 15, 20, 30 and 120 min. Terminal blood samples were collected from portal vein draws in three mice at t=20. Blood plasma was harvested from blood collected in EDTA microvettes by centrifugation (10 min at […]). Plasma was stored in −80 C freezer to be analyzed for other chemistry measurements.
# [3] = system: Mice; experiment: Glucose-stimulated insulin secretion (GTT/insulin test, insulin ELISA); type: in vivo, mouse; conditions: 30 mg/kg; for Plasma Insulin, AUC, Mean: glucose-stimulated insulin secretion, in ng·min/mL (unit assumed)
# Experimental: as §1
# as §2, with “Blood samples were collected from the following mice via tail nick blood draw (˜100 μL) into EDTA microtainer tubes at the following time points: −15, 0, 3, 6, 9, 12, 15, 20, 30 and 120 min.” left out
# A Mercodia ultrasensitive mouse insulin ELISA kit (Mercodia AB, Uppsala, Sweden) was used in a 96-well coated plate. All reagents and samples were brought to room temperature before use, Calibrator concentrations were 0.07, 0.13, 0.25, 0.63, 1.9, 5.2, 13.0, and 64.0 μg/L, and a calibration curve was prepared for each assay run. To 25 μL calibrator 0 in each well was added 5 μL calibrators and 5 μL of samples/standards in duplicate, then 50 μL dilute enzyme conjugate 11× in enzyme conjugate buffer. This was incubated on a shaker for 2 hours at room temperature (18-25° C.), and each well was washed 5 times in 350 μL wash buffer and aspirated completely. After final wash, plate was inverted and tapped firmly against absorbent paper. 200 μL substrate TMB was added to each well and incubated for 30 minutes. 50 μL stop solution was added to each well, and the plate was placed on the shaker for about 5 seconds to ensure mixing of substrate and stop Solution. Absorbance was measured at 450 nm.
# [4] = system: Mice; experiment: Glucose tolerance test (GTT), glucose disposal; type: in vivo, mouse; conditions: 30 mg/kg, 2 g/kg dextrose orally at time 0, time 60 min
# [5] = 2 g/kg dextrose orally at time 0, time 0 min
# [6] = 2 g/kg dextrose orally at time 0, time 3 min
# [7] = 2 g/kg dextrose orally at time 0, time 6 min
# [8] = 2 g/kg dextrose orally at time 0, time 9 min
# [9] = 2 g/kg dextrose orally at time 0, time 12 min
# [10] = 2 g/kg dextrose orally at time 0, time 15 min
# [11] = 2 g/kg dextrose orally at time 0, time 20 min
# [12] = 2 g/kg dextrose orally at time 0, time 30 min
# [13] = 2 g/kg dextrose orally at time 0, time 120 min
# [14] = 2 g/kg dextrose orally at time 0, time −15 min (baseline)
compound,measurement,setting,value
O=c1c2ccccc2nc(-c2ccc(F)cc2)n1NCc1ccc(Br)cc1 [Example 1],EC50,[1],≤ 10 µM
same,"Plasma Glucose, Mean",[2]; [5],220.4 mg/dL
same,"Plasma Glucose, Mean",[2]; [6],272.2 mg/dL
same,"Plasma Glucose, Mean",[2]; [7],332.6 mg/dL
same,"Plasma Glucose, Mean",[2]; [8],398.2 mg/dL
same,"Plasma Glucose, Mean",[2]; [9],427.2 mg/dL
same,"Plasma Glucose, Mean",[2]; [10],430.0 mg/dL
same,"Plasma Glucose, Mean",[2]; [11],425.9 mg/dL
same,"Plasma Glucose, Mean",[2]; [12],354.6 mg/dL
same,"Plasma Glucose, Mean",[2]; [13],213.2 mg/dL
same,"Plasma Glucose, Mean",[2]; [14],170.0 mg/dL
same,"Plasma Glucose, AUC, Mean","[2]; glucose tolerance test, 0-120 min",16400
same,"Plasma Insulin, Mean",[3]; [5],1.56 ng/mL
same,"Plasma Insulin, Mean",[3]; [6],2.35 ng/mL
same,"Plasma Insulin, Mean",[3]; [7],3.24 ng/mL
same,"Plasma Insulin, Mean",[3]; [8],3.94 ng/mL
same,"Plasma Insulin, Mean",[3]; [9],4.18 ng/mL
same,"Plasma Insulin, Mean",[3]; [10],4.05 ng/mL
same,"Plasma Insulin, Mean",[3]; [11],3.79 ng/mL
same,"Plasma Insulin, Mean",[3]; [12],1.82 ng/mL
same,"Plasma Insulin, Mean","[3]; 2 g/kg dextrose orally at time 0, time 60 min",1.23 ng/mL
same,"Plasma Insulin, Mean",[3]; [13],1.17 ng/mL
same,"Plasma Insulin, Mean",[3]; [14],1.78 ng/mL
same,"Plasma Insulin, AUC, Mean",[3]; 0-15 min,35.15
same,"Plasma Insulin, AUC, Mean",[3]; 0-30 min,68.39
same,"Plasma Glucose, Mean",[4],294.2 mg/dL
